In brackets after ≈: the same amount, converted by molar mass. Like-named read-outs stand apart in the source and are kept apart here.
Columns and labels:
Cox_B3 virus = experiment: Anti-Cox_B3 test: inhibition of cytopathic effect (CPE) in infected Vero cells, Reed-Muench; assay type: cell-based; details: Cox_B3 virus in Vero cells, CPE, Reed-Muench method; for IC50: read-out: IC50 (half-inhibitory concentration for viruses)
Source text: The present examples verifies experimental results of anti-Cox_B3 of the compounds 1-137of the present invention, Pleconaril, 3-[3,5-dimethyl-4-[5-(3-methy-1,2-oxazolyl)propoxy]phenyl]-5-(trifluonomethyl) -1,2,4-oxadiazole is used as positive control.

Vero cells = experiment: Toxicity (half toxic concentration) in the anti-Cox_B3 test on Vero cells; assay type: cell-based

| Compound | IC50 (Cox_B3 virus) [µg/mL] | TC50 (half of the toxic concentration) (Vero cells; Vero cells, Cox_B3) [µg/mL] | IC50 (half-inhibitory concentration for viruses) (Cox_B3 virus) [µg/mL] | TC50 (half of the toxic concentration) (Vero cells) [µg/mL] |
| --- | --- | --- | --- | --- |
| COc1ccc(OCCOc2c(C)cc(-c3noc(C(F)(F)F)n3)cc2C)c(F)c1 [Compound 40, 3-[3,5-dimethyl-4-[(2-fluoro-4-methoxyphenoxyl)ethoxyl]phenyl]-5-(trifluoromethyl)-1,2,4-oxadiazole] | 0.044 (≈ 0.103 µM) | 45.39 |  |  |
| Cc1cc(-c2noc(C(F)(F)F)n2)cc(C)c1OCCSc1nnc(C)n1C [Compound 27, 3-[2-[2,6-dimethyl-4-[5-(trifluoromethyl)-1,2,4-oxadiazole-3-yl]phenoxyl]ethylthio]-4,5-dimethyl-4H-1,2,4-triazole] | 0.07 (≈ 0.169 µM) | 39.25 |  |  |
| Cc1cc(OCCOc2c(C)cc(-c3noc(C(F)(F)F)n3)cc2C)no1 [Compound 1, 3-[3,5-dimethyl-4-[2-(5-methylisoxazole-3-oxy)ethoxyl]phenyl]-5-(trifluoromethyl)-1,2,4-oxadiazole] | 0.022 (≈ 0.0574 µM) | 50.67 |  |  |
| 3-[3,5-dimethyl-4-[(2-(cyclohexyloxy)-ethoxyl)phenyl]-5-(trifluoromethyl)-1,2,4-oxadiazole [Compound 35] |  | 36.78 | 0.08 |  |
| 3-[2-[2,6-dimethyl-4-[5-(trifluoromethyl)-1,2,4-oxadiazole-3-yl]phenoxyl]ethoxyl]isoxazole-5-carboxylate [Compound 58] |  |  | 0.082 | 40.67 |
| 2-[2,6-dimethyl-4-[(5-(trifluoromethyl)-1,2,4-oxadiazole-3-yl)phenoxyl]ethoxyl]-3-fluoro-5-methylpyridine [Compound 101] |  |  | 0.078 | 37.35 |
| Cc1cc(-c2noc(C(F)(F)F)n2)cc(C)c1OCCOc1ncc(C(=O)O)c(O)n1 [Compound 32, 2-[2-[2,6-dimethyl-4-[5-(trifluoromethyl)-1,2,4-oxadiazole-3-yl]phenoxyl]ethoxyl]-4-hydroxyl-pyrimidine-5-carboxylic acid] | 0.023 (≈ 0.0522 µM) | 40.28 |  |  |
| 6-[2,6-dimethyl-4-[(5-(trifluoromethyl)-1,2,4-oxadiazole-3-yl)phenoxyl]ethoxyl]-5-methylpyridine [Compound 105] |  |  | 0.13 | 43.18 |
| Cc1cc(-c2noc(C(F)(F)F)n2)cc(C)c1OCCOc1cc(C(F)(F)F)on1 [Compound 3, 3-[3,5-dimethyl-4-[2-(5-trifluoromethylisoxazole-3-oxy)ethoxyl]phenyl]-5-(trifluoromethyl)-1,2,4-oxadiazole] | 0.18 (≈ 0.412 µM) | 36.68 |  |  |
| Cc1cc(-c2noc(C(F)(F)F)n2)cc(C)c1OCCCOc1ccc(-c2noc(C(F)(F)F)n2)nn1 [Compound 137, 3-[5-(trifluoromethyl)-1,2,4-oxadiazole-3-yl]-6-[3-[2,6-dimethyl-4-[5-(trifluoromethyl)-1,2,4-oxadiazole-3-yl]phenoxyl]propoxy]pyridazine] | 0.039 (≈ 0.0735 µM) | 41.65 |  |  |
| 3-[3,5-dimethyl-4-[2-(4-methylthiazole-2-thio)ethoxyl]phenyl]-5-(trifluoromethyl)-1,2,4-oxadiazole [Compound 14] |  |  | 0.11 | 40.58 |
| COC(=O)c1cc(OCCOc2c(C)cc(-c3noc(C(F)(F)F)n3)cc2C)no1 [Compound 4, 3-[2-[2,6-dimethyl-4-[5-(trifluoromethyl)-1,2,4-oxadiazole-3-yl]phenoxyl]ethoxyl]-isoxazole-5-carboxylate] |  |  | 0.26 | 35.58 |
| 4-[2,6-dimethyl-4-[(5-(trifluoromethyl)-1,2,4-oxadiazole-3-yl)phenoxyl]ethoxyl]-2-methoxyl-5-fluoropyrimidine [Compound 54] |  |  | 0.067 | 43.15 |
| Cc1cc(-c2noc(C(F)(F)F)n2)cc(C)c1OCCOc1cc(C(F)(F)F)no1 [Compound 5, 3-[3,5-dimethyl-4-[2-(3-trifluoromethylisoxazole-5-oxy)ethoxyl]phenyl]-5-(trifluoromethyl)-1,2,4-oxadiazole] | 0.05 (≈ 0.114 µM) | 40.12 |  |  |
| Cc1cc(-c2noc(C(F)(F)F)n2)cc(C)c1OCCOc1cc(C(F)(F)F)nn1C [Compound 16, 3-[3,5-dimethyl-4-[2-[1-methyl-3-(trifluoromethyl)-1H-pyrazole-5-oxy]ethoxyl]phenyl]-5-(trifluoromethyl)-1,2,4-oxadiazole] | 0.09 (≈ 0.2 µM) | 41.38 |  |  |
| Cc1cc(-c2noc(C(F)(F)F)n2)cc(C)c1OCCSc1nnc(C(F)(F)F)[nH]1 [Compound 26, 3-[2-[2,6-dimethyl-4-[5-(trifluoromethyl)-1,2,4-oxadiazole-3-yl]phenoxyl]ethylthio]-5-trifluoromethyl-4H-1,2,4-triazole] | 0.06 (≈ 0.132 µM) | 38.35 |  |  |
| COC(=O)c1cnc(OCCOc2c(C)cc(-c3noc(C(F)(F)F)n3)cc2C)c(F)c1 [Compound 49, 6-[2,6-dimethyl-4-[(5-(trifluoromethyl)-1,2,4-oxadiazole-3-yl)phenoxyl]ethoxyl]-5-fluoro-3-pyridinecarboxylate] |  |  | 0.096 | 35.36 |
| 6-[2,6-dimethyl-4-[(5-(trifluoromethyl)-1,2,4-oxadiazole-3-yl)phenoxyl]ethoxyl]-5-trifluoromethylpyridine [Compound 106] |  |  | 0.09 | 36.36 |
| Cc1nc(-c2ccc(OCCCOc3c(C)cc(-c4noc(C(F)(F)F)n4)cc3C)nc2)no1 [Compound 119, 2-[3-[2,6-dimethyl-4-[5-(trifluoromethyl)-1,2,4-oxadiazole-3-yl]phenoxyl]propoxy]-5-(5-methyl-1,2,4-oxadiazole-3-yl]-pyridine] | 0.042 (≈ 0.0883 µM) | 36.28 |  |  |
| 3-[3-[2,6-dimethyl-4-[5-(trifluoromethyl)-1,2,4-oxadiazole-3-yl]phenoxyl]propoxy]isoxazole-5-carboxylate [Compound 61] |  |  | 0.23 | 37.58 |
| Cc1csc(OCCOc2c(C)cc(-c3noc(C(F)(F)F)n3)cc2C)n1 [Compound 13, 3-[3,5-dimethyl-4-[2-(4-methylthiazole-2-oxy)ethoxyl]phenyl]-5-(trifluoromethyl)-1,2,4-oxadiazole] | 0.15 (≈ 0.376 µM) | 38.68 |  |  |
| 4-[2,6-dimethyl-4-[(5-(trifluoromethyl)-1,2,4-oxadiazole-3-yl)phenoxyl]ethoxyl]-2-methoxyl-5-fluoropyrimidine [Compound 108] |  |  | 0.078 | 47.58 |
| 4-[2,6-dimethyl-4-[(5-(trifluoromethyl)-1,2,4-oxadiazole-3-yl)phenoxyl]ethoxyl]-3-fluorobenzonitrile [Compound 92] |  |  | 0.18 | 43.78 |

From patent publication US9145405B2, “Oxadiazole compound and preparation method thereof, pharmaceutical composition and use thereof” (SHANGHAI JIAO TONG UNIVERSITY, priority 2011, dated 2015)
